This is an account of results in BindingDB's records for doi:10.1016/j.bmcl.2007.11.087 (Bristol-Myers Squibb, 2008).

Each structure is given as a SMILES string. pIC50: −log10 of the molar value.

The test can be described thus: Antagonist activity at human CCR3 receptor assessed as inhibition of chemotaxis in eosinophil.
For the compound `C[C@@H](NC(=O)Nc1cccc(-c2nnnn2C)c1)[C@@H](O)CN(C)[C@@H](C)[C@@H](O)c1ccccc1` [1-((2R,3S)-3-hydroxy-4-(((1S,2S)-1-hydroxy-1-phenylpropan-2-yl)(methyl)amino)butan-2-yl)-3-(3-(1-methyl-1H-tetrazol-5-yl)phenyl)urea], the pIC50 is 7.66. As for `C[C@@H](NC(=O)Nc1cccc(-c2nnnn2C)c1)[C@@H](O)CN1CCC[C@@H](Cc2ccc(F)cc2)C1` [1-{(1R,2S)-3-[(S)-3-(4-Fluoro-benzyl)-piperidin-1-yl]-2-hydroxy-1-methyl-propyl}-3-[3-(1-methyl-1H-tetrazol-5-yl)-phenyl]-urea], the pIC50 was 10.42. Take `CCc1cc(NC(=O)N[C@H](C)[C@@H](O)CN(C)CCCc2ccc(F)cc2)cc(-c2nnnn2C)c1` [1-(3-ethyl-5-(1-methyl-1H-tetrazol-5-yl)phenyl)-3-((2R,3S)-4-((3-(4-fluorophenyl)propyl)(methyl)amino)-3-hydroxybutan-2-yl)urea]: the pIC50 was 8.59. Take `CCc1cc(NC(=O)N[C@H](C)[C@@H](O)CN(CC)CCCc2ccc(F)cc2)cc(-c2nnnn2C)c1` [1-((2R,3S)-4-(ethyl(3-(4-fluorophenyl)propyl)amino)-3-hydroxybutan-2-yl)-3-(3-ethyl-5-(1-methyl-1H-tetrazol-5-yl)phenyl)urea]: the pIC50 was 11.40. To `CCc1cc(NC(=O)N[C@H](C)[C@@H](O)CN(CCCc2ccc(F)cc2)CC2CC2)cc(-c2nnnn2C)c1` [1-((2R,3S)-4-((cyclopropylmethyl)(3-(4-fluorophenyl)propyl)amino)-3-hydroxybutan-2-yl)-3-(3-ethyl-5-(1-methyl-1H-tetrazol-5-yl)phenyl)urea] belongs 11.30.

The term pIC50 denotes −log10 of the IC50, conventionally taken in molar units.
